Target: T1, KRAS^G12C::SOS1 (Homo sapiens, UniProt Q07889)
T1 sequence (Q07889 1-1333): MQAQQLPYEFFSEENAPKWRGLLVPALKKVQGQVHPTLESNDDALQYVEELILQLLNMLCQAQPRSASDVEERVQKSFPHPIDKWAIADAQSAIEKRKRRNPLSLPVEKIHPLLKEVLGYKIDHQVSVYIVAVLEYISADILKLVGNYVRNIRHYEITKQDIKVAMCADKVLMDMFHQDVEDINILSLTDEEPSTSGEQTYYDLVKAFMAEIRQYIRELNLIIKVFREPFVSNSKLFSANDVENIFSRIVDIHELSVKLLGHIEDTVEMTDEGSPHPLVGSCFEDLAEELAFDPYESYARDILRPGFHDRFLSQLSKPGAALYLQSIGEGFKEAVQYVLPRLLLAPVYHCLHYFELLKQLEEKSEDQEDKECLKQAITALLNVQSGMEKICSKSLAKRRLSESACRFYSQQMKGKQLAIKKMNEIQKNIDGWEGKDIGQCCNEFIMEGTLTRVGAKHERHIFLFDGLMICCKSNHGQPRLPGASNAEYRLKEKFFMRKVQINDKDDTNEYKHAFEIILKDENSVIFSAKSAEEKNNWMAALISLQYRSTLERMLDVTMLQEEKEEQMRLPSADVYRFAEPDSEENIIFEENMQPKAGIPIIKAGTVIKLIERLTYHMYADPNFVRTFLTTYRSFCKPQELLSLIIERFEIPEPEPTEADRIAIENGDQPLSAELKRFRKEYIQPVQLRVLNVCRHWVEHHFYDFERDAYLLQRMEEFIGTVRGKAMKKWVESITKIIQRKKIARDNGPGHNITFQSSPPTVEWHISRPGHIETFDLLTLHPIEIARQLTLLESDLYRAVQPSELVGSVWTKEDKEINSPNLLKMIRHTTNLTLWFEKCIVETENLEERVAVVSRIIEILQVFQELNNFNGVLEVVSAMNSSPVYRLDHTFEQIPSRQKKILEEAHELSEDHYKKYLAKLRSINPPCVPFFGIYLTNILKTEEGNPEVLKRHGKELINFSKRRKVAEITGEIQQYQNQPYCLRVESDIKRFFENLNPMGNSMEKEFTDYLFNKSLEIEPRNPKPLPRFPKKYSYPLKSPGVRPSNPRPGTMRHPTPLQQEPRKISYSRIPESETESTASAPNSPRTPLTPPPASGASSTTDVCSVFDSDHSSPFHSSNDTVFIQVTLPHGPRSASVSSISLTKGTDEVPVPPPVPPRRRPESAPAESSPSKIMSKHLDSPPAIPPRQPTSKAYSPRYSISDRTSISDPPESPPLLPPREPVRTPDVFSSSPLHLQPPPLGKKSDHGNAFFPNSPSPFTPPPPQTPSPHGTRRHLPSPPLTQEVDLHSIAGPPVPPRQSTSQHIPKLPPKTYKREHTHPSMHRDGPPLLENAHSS
Test: KRAS G12C::SOS1 protein-protein interaction (PPI) inhibition assay (HTRF binding kit)

IC50 [nM]	SMILES
< 1000	C[C@@H](NC(=O)c1ccc(=O)n(-c2ccc3nnn(C)c3c2)n1)c1cc(N)cc(C(F)(F)F)c1 [Example 238, N-[(1R)-1-[3-amino-5-(trifluoromethyl)phenyl]ethyl]-1-(1-methyl-1H-1,2,3-benzotriazol-6-yl)-6-oxo-1,6-dihydropyridazine-3-carboxamide]
1000 to 10000	C[C@@H](NC(=O)c1ccc(=O)n(-c2cccc(-c3ncco3)c2)n1)c1cc(N)cc(C(F)(F)F)c1 [Example 239, N-[(1R)-1-[3-amino-5-(trifluoromethyl)phenyl]ethyl]-1-[3-(1,3-oxazol-2-yl)phenyl]-6-oxo-1,6-dihydropyridazine-3-carboxamide]
< 1000	C[C@@H](NC(=O)c1ccc(=O)n(-c2ccc3cnn(C)c3c2F)n1)c1cc(N)cc(C(F)(F)F)c1 [Example 240, N-[(1R)-1-[3-amino-5-(trifluoromethyl)phenyl]ethyl]-1-(7-fluoro-1-methyl-1H-indazol-6-yl)-6-oxo-1,6-dihydropyridazine-3-carboxamide]
< 1000	C[C@@H](NC(=O)c1cc(Br)c(=O)n(-c2ccccc2)n1)c1cc(N)cc(C(F)(F)F)c1 [Example 241, (R)-N-(1-(3-amino-5-(trifluoromethyl)phenyl)ethyl)-5-bromo-6-oxo-1-phenyl-1,6-dihydropyridazine-3-carboxamide]
< 1000	COCC(F)(F)c1cccc([C@@H](C)NC(=O)c2ccc(=O)n(-c3ccccc3F)n2)c1F [Example 242, N-[(1R)-1-[3-(1,1-difluoro-2-methoxy-ethyl)-2-fluoro-phenyl]ethyl]-1-(2-fluorophenyl)-6-oxo-pyridazine-3-carboxamide]
< 1000	C[C@@H](NC(=O)c1ccc(=O)n(-c2ccccc2F)n1)c1cccc(C(F)(F)CN)c1F [Example 243, N-[(1R)-1-[3-(2-amino-1,1-difluoro-ethyl)-2-fluoro-phenyl]ethyl]-1-(2-fluorophenyl)-6-oxo-pyridazine-3-carboxamide]
< 1000	C[C@@H](NC(=O)c1ccc(=O)n(-c2ccccc2F)n1)c1cc(N)cc(C(F)(F)F)c1F [Example 245, N-[(1R)-1-[5-amino-2-fluoro-3-(trifluoromethyl)phenyl]ethyl]-1-(2-fluorophenyl)-6-oxo-pyridazine-3-carboxamide]
< 1000	Cc1c([C@@H](C)NC(=O)c2ccc(=O)n(-c3ccccc3F)n2)cccc1C(F)(F)CO [Example 246, N-[(1R)-1-[3-(1,1-difluoro-2-hydroxy-ethyl)-2-methyl-phenyl]ethyl]-1-(2-fluorophenyl)-6-oxo-pyridazine-3-carboxamide]
< 1000	C[C@@H](NC(=O)c1ccc(=O)n(-c2ccccc2OC(F)F)n1)c1cc(N)cc(C(F)(F)F)c1 [Example 247, N-[(1R)-1-[3-amino-5-(trifluoromethyl)phenyl]ethyl]-1-[2-(difluoromethoxy)phenyl]-6-oxo-pyridazine-3-carboxamide]
< 1000	C[C@@H](NC(=O)c1ccc(=O)n(-c2cccc(C(=O)OC(C)(C)C)c2)n1)c1cc(N)cc(C(F)(F)F)c1 [Example 248, Tert-butyl 3-[3-[[(1R)-1-[3-amino-5-(trifluoromethyl)phenyl]ethyl]carbamoyl]-6-oxo-pyridazin-1-yl]benzoate]
< 1000	C[C@@H](NC(=O)c1ccc(=O)n(-c2cccc(C(=O)N3CCNCC3)c2)n1)c1cc(N)cc(C(F)(F)F)c1 [Example 250, N-[(1R)-1-[3-amino-5-(trifluoromethyl)phenyl]ethyl]-6-oxo-1-[3-(piperazine-1-carbonyl)phenyl]pyridazine-3-carboxamide]
< 1000	C[C@@H](NC(=O)c1ccc(=O)n(-c2cccc(C(=O)NCCN(C)C)c2)n1)c1cc(N)cc(C(F)(F)F)c1 [Example 251, N-[(1R)-1-[3-amino-5-(trifluoromethyl)phenyl]ethyl]-1-[3-[2-(dimethylamino)ethylcarbamoyl]phenyl]-6-oxo-pyridazine-3-carboxamide]
< 1000	C[C@@H](NC(=O)c1ccc(=O)n(-c2cccc(C(N)=O)c2)n1)c1cc(N)cc(C(F)(F)F)c1 [Example 252, N-[(1R)-1-[3-amino-5-(trifluoromethyl)phenyl]ethyl]-1-(3-carbamoylphenyl)-6-oxo-pyridazine-3-carboxamide]
< 1000	CNC(=O)c1cccc(-n2nc(C(=O)N[C@H](C)c3cc(N)cc(C(F)(F)F)c3)ccc2=O)c1 [Example 253, N-[(1R)-1-[3-amino-5-(trifluoromethyl)phenyl]ethyl]-1-[3-(methylcarbamoyl)phenyl]-6-oxo-pyridazine-3-carboxamide]
< 1000	C[C@@H](NC(=O)c1ccc(=O)n(-c2cccc(C(=O)N3CCOCC3)c2)n1)c1cc(N)cc(C(F)(F)F)c1 [Example 254, N-[(1R)-1-[3-amino-5-(trifluoromethyl)phenyl]ethyl]-1-[3-(morpholine-4-carbonyl)phenyl]-6-oxo-pyridazine-3-carboxamide]
< 1000	C[C@@H](NC(=O)c1ccc(=O)n(-c2cccc(C(=O)N3CCN(C)CC3)c2)n1)c1cc(N)cc(C(F)(F)F)c1 [Example 255, N-[(1R)-1-[3-amino-5-(trifluoromethyl)phenyl]ethyl]-1-[3-(4-methylpiperazine-1-carbonyl)phenyl]-6-oxo-pyridazine-3-carboxamide]
< 1000	CNCC(F)(F)c1cccc([C@@H](C)NC(=O)c2ccc(=O)n(-c3ccccc3F)n2)c1F [Example 256, N-[(1R)-1-[3-[1,1-difluoro-2-(methylamino)ethyl]-2-fluorophenyl]ethyl]-1-(2-fluorophenyl)-6-oxo-pyridazine-3-carboxamide]
< 1000	C[C@@H](NC(=O)c1ccc(=O)n(-c2ccccc2F)n1)c1cccc(C(F)(F)CN(C)C)c1F [Example 257, N-[(1R)-1-[3-[2-(dimethylamino)-1,1-difluoro-ethyl]-2-fluorophenyl]ethyl]-1-(2-fluorophenyl)-6-oxo-pyridazine-3-carboxamide]
< 1000	C[C@@H](NC(=O)c1ccc(=O)n(-c2ccccc2F)n1)c1cccc(C(F)(F)CN(C)C)c1 [Example 258, N-[(1R)-1-[3-[2-(dimethylamino)-1,1-difluoro-ethyl]phenyl]ethyl]-1-(2-fluorophenyl)-6-oxo-pyridazine-3-carboxamide]
< 1000	C[C@@H](NC(=O)c1ccc(=O)n(-c2ccccc2F)n1)c1cccc(C(F)(F)F)c1F [Example 259, 1-(2-fluorophenyl)-N-[(1R)-1-[2-fluoro-3-(trifluoromethyl)phenyl]ethyl]-6-oxo-pyridazine-3-carboxamide]
< 1000	C[C@@H](NC(=O)c1ccc(=O)n(-c2ccccc2F)n1)c1cccc(C#N)c1F [Example 260, N-[(1R)-1-(3-cyano-2-fluoro-phenyl)ethyl]-1-(2-fluorophenyl)-6-oxo-pyridazine-3-carboxamide]
> 10000	C[C@@H](NC(=O)c1ccc(=O)n(-c2ccccc2F)n1)c1cccc(F)c1Cl [Example 261, N-[(1R)-1-(2-chloro-3-fluoro-phenyl)ethyl]-1-(2-fluorophenyl)-6-oxo-pyridazine-3-carboxamide]
1000 to 10000	C[C@H](NC(=O)c1ccc(=O)n(-c2ccccc2F)n1)c1cccc(F)c1Cl [Example 262, N-[(1S)-1-(2-chloro-3-fluorophenyl)ethyl]-1-(2-fluorophenyl)-6-oxo-pyridazine-3-carboxamide]
< 1000	C[C@@H](NC(=O)c1ccc(=O)n(-c2ccccc2F)c1)c1cc(N)cc(C(F)F)c1 [Example 263, N-[(1R)-1-[3-amino-5-(difluoromethyl)phenyl]ethyl]-1-(2-fluorophenyl)-6-oxo-pyridine-3-carboxamide]
< 1000	C[C@@H](NC(=O)C1=NN(c2ccccc2)C(=O)CC1)c1cc(N)cc(C(F)(F)F)c1 [Example 264, N-[(1R)-1-[3-amino-5-(trifluoromethyl)phenyl]ethyl]-6-oxo-1-phenyl-4,5-dihydropyridazine-3-carboxamide]
< 1000	CNCc1cc2c(cc1-c1ccc([C@@H](C)NC(=O)c3ccc(=O)n(-c4ccccc4F)n3)s1)CC2 [Example 266, 1-(2-fluorophenyl)-N-[(1R)-1-[5-[4-(methylaminomethyl)-3-bicyclo [4.2.0]octa-1,3,5-trienyl]-2-thienyl]ethyl]-6-oxo-pyridazine-3-carboxamide]
